According to patent US20230150978A1, “QUINAZOLINONE DERIVATIVES AND USES THEREOF FOR TREATING A CANCER” (ENYO PHARMA, priority 2020, published 2023):
Like-named read-outs stand apart in the source and are kept apart here.

Tests used:
[1] = system: HMGB1; assay: HMGB1 release screen, Nano-Glo HiBiT extracellular detection; format: cell-based; details: extracellular luminescence
Description: Construction of pBiT3.1-HMGB1 Plasmid
(§1) HMGB1 derived from pCMV6-AC-GFP plasmid (ref. RG205918, Origene) was amplified by PCR using the following set of primers: Seq ID No 1: forward, 5′-[…]-3′; Seq ID No 2: reverse, 5′-[…]-3′. The PCR fragment was subsequently digested by EcoRI and XhoI (R3101S and R0146S respectively, New England Biolabs) and inserted between the EcoRI and XhoI sites in the plasmid pBiT3.1-C(ref. N237A, Promega). The resulting plasmid (pBiT3.1-HMGB1) was grown in NEB10-beta competent E. coli (ref. C3019I, New England Biolabs) and purified using the NucleoBond Xtra Midi Kit (ref. 740410, Macherey-Nagel).
Construction of HMGB1 Reporter Cell Line
(§2) pBiT3.1-HMGB1 was transfected in MDA-MB-231 cells (ref. ATCC HTB-2) using Lipofectamine 2000 reagent (ref. 11668, Invitrogen). Transfected cells were selected for blasticidin resistance (15 μg/ml, ref. Al 113903 Gibco) in medium containing DMEM 1× (ref. 1995065, Gibco) with 1% penicillin and streptomycin, and 10% fetal bovine serum.
Screen for HMGB1-Releasing Drugs
(§3) MDA-MB-231 cells stably expressing HMGB1-HiBiT (10^4 cells/well) were seeded into white 96-well plates (ref.3917, Corning) and allowed to recover for 24h. […] Mitoxantrone dihydrochloride (ref. M6545, Sigma-Aldrich) was used as a positive control. Extracellular translocation of HMGB1 was measured using the Nano-Glo HiBiT extracellular detection system (ref. N2422, Promega). Nano-Glo HiBiT Extracellular Reagent was prepared in advance, added to the well and incubated 10 min. Luminescence of the extracellular HMGB1-HiBiT was quantified using the Spark 20M spectrofluorimeter (TECAN)

[2] = system: Calreticulin; assay: Calreticulin release (ER to plasma membrane translocation) screen, Nano-Glo HiBiT extracellular detection; format: cell-based; details: extracellular luminescence, read-out: CalR EC50
Description: as §1, with “Construction of pBiT3.1-Calreticulin Plasmid Calreticulin” for “HMGB1”, “pCMV6-AC” for “pCMV6-AC-GFP”, “SC320287,” for “RG205918,”, “3:” for “1:”, “4:” for “2:”, “(pBiT3.1-Calreticulin)” for “(pBiT3.1-HMGB1)”
Construction of Calreticulin Reporter Cell Line
as §2, with “pBiT3.1-Calreticulin” for “pBiT3.1-HMGB1”
Screen for Calreticulin-ER to Plasma Membrane Translocating Drugs
as §3, with “Calreticulin-HiBiT” for “HMGB1-HiBiT”, “Calreticulin” for “HMGB1”, “min.” for “min. Luminescence of the extracellular HMGB1-HiBiT was quantified using the Spark 20M spectrofluorimeter (TECAN)”
Luminescence of the extracellular Calreticulin-HiBiT was quantified using the Spark 20M spectrofluorimeter (TECAN).

[3] = Homo sapiens, MDA-MB-231, MDA-MB-231 cells stably expressing HMGB1-HiBiT
[4] = Homo sapiens, MDA-MB-231, MDA-MB-231 cells stably expressing Calreticulin-HiBiT
[5] = MDA-MB-231 cells stably expressing HMGB1-HiBiT
[6] = MDA-MB-231 cells stably expressing Calreticulin-HiBiT

O=c1[nH]c(CN2CCc3ccccc32)nc2ccc(N3CCC3)cc12 [Ex. #100, 6-(azetidin-1-yl)-2-(indolin-1-ylmethyl)-3H-quinazolin-4-one]
EC50 [1, 3]: 250 nM
EC50 [2, 4]: 230 nM

COc1ccc2nc(CN3CCCc4cccc(Cl)c43)[nH]c(=O)c2c1 [Ex. #12, 2-[(8-chloro-3,4-dihydro-2H-quinolin-1-yl)methyl]-6-methoxy-3H-quinazolin-4-one]
EC50 [1, 3]: 751 nM
EC50 [2, 4]: 522 nM

COc1ccc2nc(CN3CC(CCO)c4ccccc43)[nH]c(=O)c2c1 (stereo not drawn) [Ex. #129, 2-[[3-(2-hydroxyethyl)indolin-1-yl]methyl]-6-methoxy-3H-quinazolin-4-one]
EC50 [1, 3]: 13300 nM
EC50 [2, 4]: 10700 nM

O=c1[nH]c(CN2CCc3ccccc32)nc2ccc(C(F)(F)F)cc12 [Ex. #85, 2-(indolin-1-ylmethyl)-6-(trifluoromethyl)-3H-quinazolin-4-one]
EC50 [1, 3]: 3560 nM
EC50 [2, 4]: 1960 nM

COc1ccc2nc(CN3CC(CCN)c4ccccc43)[nH]c(=O)c2c1 (stereo not drawn) [Ex. #131, 2-[1-[(6-methoxy-4-oxo-3H-quinazolin-2-yl)methyl]indolin-3-yl]ethylammonium chloride]
EC50 [1, 3]: 14500 nM
EC50 [2, 4]: 12100 nM

CC1CN(Cc2nc3ccc(Cl)cc3c(=O)[nH]2)c2ccccc21 (single isomer, unassigned) [Ex. #38, 6-chloro-2-[(3-methylindolin-1-yl)methyl]-3H-quinazolin-4-one]
EC50 [1, 5]: 721 nM
EC50 [2, 6]: 499 nM

CC(c1nc2ccc(Cl)cc2c(=O)[nH]1)N1CCc2ccccc21 (stereo not drawn) [Ex. #120, 6-chloro-2-(1-indolin-1-ylethyl)-3H-quinazolin-4-one]
EC50 [1, 3]: 7860 nM
EC50 [2, 4]: 4610 nM

COc1ccc2nc(CN3CC(C)c4ccccc43)[nH]c(=O)c2c1 (single isomer, unassigned) [Ex. #4, 6-methoxy-2-[(3-methylindolin-1-yl)methyl]-3H-quinazolin-4-one]
EC50 [1, 5]: 207 nM
EC50 [2, 6]: 172 nM

COc1ccc2nc(CN3CC(C)c4ccccc43)[nH]c(=O)c2c1 (single isomer, unassigned) [Ex. #5, 6-methoxy-2-[(3-methylindolin-1-yl)methyl]-3H-quinazolin-4-one]
EC50 [1, 5]: 3460 nM
EC50 [2, 6]: 2310 nM

COc1ccc(OC)c2c1CN(Cc1nc3ccc(Cl)cc3c(=O)[nH]1)CC2O (stereo not drawn) [Ex. #61, 6-chloro-2-[(4-hydroxy-5,8-dimethoxy-3,4-dihydro-1H-isoquinolin-2-yl)methyl]-3H-quinazolin-4-one]
EC50 [1, 3]: 3860 nM
EC50 [2, 4]: 450 nM

COc1ccc2nc(CN3CCc4c(Cl)cccc4C3)[nH]c(=O)c2c1 [Ex. #20, 2-[(5-chloro-3,4-dihydro-1H-isoquinolin-2-yl)methyl]-6-methoxy-3H-quinazolin-4-one]
EC50 [1, 3]: 10800 nM
EC50 [2, 4]: 4260 nM

COc1cccc2c1CCCN2Cc1nc2ccc(Cl)cc2c(=O)[nH]1 [Ex. #52, 6-chloro-2-[(5-methoxy-3,4-dihydro-2H-quinolin-1-yl)methyl]-3H-quinazolin-4-one]
EC50 [1, 3]: 1360 nM
EC50 [2, 4]: 1260 nM

O=c1[nH]c(CN2CCc3ccccc32)nc2ccc(N3CCC(O)C3)cc12 (stereo not drawn) [Ex. #105, 6-(3-hydroxypyrrolidin-1-yl)-2-(indolin-1-ylmethyl)-3H-quinazolin-4-one]
EC50 [1, 3]: 11700 nM
EC50 [2, 4]: 9160 nM

CC(C)Oc1ccc2nc(CN3CCc4ccccc43)[nH]c(=O)c2c1 [Ex. #87, 2-(indolin-1-ylmethyl)-6-isopropoxy-3H-quinazolin-4-one]
EC50 [1, 3]: 3960 nM
EC50 [2, 4]: 2160 nM

Cc1ccc2c(c1)CCN2Cc1nc2ccc(Cl)cc2c(=O)[nH]1 [Ex. #46, 6-chloro-2-[(5-methylindolin-1-yl)methyl]-3H-quinazolin-4-one]
EC50 [1, 3]: 5510 nM
EC50 [2, 4]: 2710 nM

CN1CCN(Cc2nc3ccc(Cl)cc3c(=O)[nH]2)c2ccccc21 [Ex. #128, 6-chloro-2-[(4-methyl-2,3-dihydroquinoxalin-1-yl)methyl]-3H-quinazolin-4-one]
EC50 [1, 3]: 13300 nM
EC50 [2, 4]: 10500 nM

Cc1cccc2c1N(Cc1nc3ccc(Cl)cc3c(=O)[nH]1)CC2 [Ex. #44, 6-chloro-2-[(7-methylindolin-1-yl)methyl]-3H-quinazolin-4-one]
EC50 [1, 3]: 1330 nM
EC50 [2, 4]: 1260 nM

O=c1[nH]c(CN2CCc3ccccc32)nc2ccc(C3CC3)cc12 [Ex. #99, 6-cyclopropyl-2-(indolin-1-ylmethyl)-3H-quinazolin-4-one]
EC50 [1, 3]: 97.5 nM
EC50 [2, 4]: 97.5 nM

COC1CCN(c2ccc3nc(CN4CCc5ccccc54)[nH]c(=O)c3c2)CC1 [Ex. #132, 2-(indolin-1-ylmethyl)-6-(4-methoxy-1-piperidyl)-3H-quinazolin-4-one]
EC50 [1, 3]: 14400 nM
EC50 [2, 4]: 10400 nM

O=c1[nH]c(CN2CCCCc3ccccc32)nc2ccc(Cl)cc12 [Ex. #62, 6-chloro-2-(2,3,4,5-tetrahydro-1-benzazepin-1-ylmethyl)-3H-quinazolin-4-one]
EC50 [1, 3]: 1060 nM
EC50 [2, 4]: 960 nM

O=c1[nH]c(CN2CCc3ccccc32)nc2ccc(OC(F)(F)F)cc12 [Ex. #82, 2-(indolin-1-ylmethyl)-6-(trifluoromethoxy)-3H-quinazolin-4-one]
EC50 [1, 3]: 1170 nM
EC50 [2, 4]: 1380 nM

O=c1[nH]c(CN2CCc3ccccc3C2)nc2ccc(Cl)cc12 [Ex. #59, 6-chloro-2-(3,4-dihydro-1H-isoquinolin-2-ylmethyl)-3H-quinazolin-4-one]
EC50 [1, 3]: 7510 nM
EC50 [2, 4]: 4410 nM

CC1CN(Cc2nc3ccc(Cl)cc3c(=O)[nH]2)c2ccccc21 (single isomer, unassigned) [Ex. #39, 6-chloro-2-[(3-methylindolin-1-yl)methyl]-3H-quinazolin-4-one]
EC50 [1, 5]: 10400 nM
EC50 [2, 6]: 8060 nM

COc1ccc2nc(CN3CCc4c(cccc4NS(C)(=O)=O)C3)[nH]c(=O)c2c1 [Ex. #21, N-[2-[(6-methoxy-4-oxo-3H-quinazolin-2-yl)methyl]-3,4-dihydro-1H-isoquinolin-5-yl]methanesulfonamide]
EC50 [1, 3]: 11200 nM
EC50 [2, 4]: 3960 nM

O=c1[nH]c(CN2CCc3ccccc32)nc2ccc(N3CCC(CO)C3)cc12 (stereo not drawn) [Ex. #104, 6-[3-(hydroxymethyl)pyrrolidin-1-yl]-2-(indolin-1-ylmethyl)-3H-quinazolin-4-one]
EC50 [1, 3]: 3460 nM
EC50 [2, 4]: 2160 nM

O=c1[nH]c(CN2CCc3ccccc32)nc2ccc(N3CCCCC3)cc12 [Ex. #106, 2-(indolin-1-ylmethyl)-6-(1-piperidyl)-3H-quinazolin-4-one]
EC50 [1, 3]: 11100 nM
EC50 [2, 4]: 8460 nM

COc1cc2nc(CN3CCc4ccccc43)[nH]c(=O)c2cc1OC [Ex. #83, 2-(indolin-1-ylmethyl)-6,7-dimethoxy-3H-quinazolin-4-one]
EC50 [1, 3]: 1440 nM
EC50 [2, 4]: 1610 nM

COc1cc2c(=O)[nH]c(CN3CC(C)(C)c4ccccc43)nc2cc1Cl [Ex. #93, 7-chloro-2-[(3,3-dimethylindolin-1-yl)methyl]-6-methoxy-3H-quinazolin-4-one]
EC50 [1, 3]: 150 nM
EC50 [2, 4]: 97.5 nM

O=c1[nH]c(CN2CC3(CCCC3)c3ccccc32)nc2ccc(Cl)cc12 [Ex. #42, 6-chloro-2-(spiro[cyclopentane-1,3′-indoline]-1′-ylmethyl)-3H-quinazolin-4-one]
EC50 [1, 3]: 3550 nM
EC50 [2, 4]: 1760 nM

COc1ccc2nc(CN3CC(C)(C)c4ccccc43)[nH]c(=O)c2c1 [Ex. #2, 2-[(3,3-dimethylindolin-1-yl)methyl]-6-methoxy-3H-quinazolin-4-one]
EC50 [1, 3]: 600 nM
EC50 [2, 4]: 400 nM
